Reference: ChEMBL document CHEMBL3046227, “Synthesis and evaluation in vitro of 1-[2-(10-dihydroartemisininoxy) ethyl]-3-phenylurea derivatives as potential agents against cancer” (Med Chem Res, 2013)

Legend:
HCT-116 [1] = test: Ratio of dihydroartemisinin IC50 to compound IC50 for Homo sapiens (human) HCT116 cells; format: functional
HT-1080 = test: Cytotoxicity against Homo sapiens (human) HT1080 cells after 48 hr by MTT assay; format: functional, cell-based; settings: HT-1080, 48 h
[2] = Cytotoxicity against Homo sapiens (human) A375-S2 cells after 48 hr by MTT assay; format: functional, cell-based; settings: A375-S2, 48 h
A549 [3] = test: Cytotoxicity against Homo sapiens (human) A549 cells after 48 hr by MTT assay; format: functional, cell-based; settings: A549, 48 h
HepG2 = test: Cytotoxicity against Homo sapiens (human) HepG2 cells after 48 hr by MTT assay; format: functional, cell-based; settings: HepG2, 48 h
HCT-116 [4] = test: Cytotoxicity against Homo sapiens (human) HCT116 cells after 48 hr by MTT assay; format: functional, cell-based; settings: HCT-116, 48 h
HL-60 = test: Cytotoxicity against Homo sapiens (human) HL60 cells after 48 hr by MTT assay; format: functional, cell-based; settings: HL-60, 48 h
K562 = test: Cytotoxicity against Homo sapiens (human) K562 cells after 48 hr by MTT assay; format: functional, cell-based; settings: K562, 48 h
U-937 = test: Cytotoxicity against Homo sapiens (human) U937 cells after 48 hr by MTT assay; format: functional, cell-based; settings: U-937, 48 h
MCF7 [5] = test: Cytotoxicity against Homo sapiens (human) MCF7 cells after 48 hr by MTT assay; format: functional, cell-based; settings: MCF7, 48 h
HeLa = test: Cytotoxicity against Homo sapiens (human) HeLa cells after 48 hr by MTT assay; format: functional, cell-based
A549 [6] = test: Ratio of dihydroartemisinin IC50 to compound IC50 for Homo sapiens (human) A549 cells; format: functional
MCF7 [7] = test: Ratio of dihydroartemisinin IC50 to compound IC50 for Homo sapiens (human) MCF7 cells; format: functional

Compound | Ratio IC50 (HCT-116 [1]) | IC50 (HT-1080) [µM] | IC50 [2] [µM] | IC50 (A549 [3]) [µM] | IC50 (HepG2) [µM] | IC50 (HCT-116 [4]) [µM] | IC50 (HL-60) [µM] | IC50 (K562) [µM] | IC50 (U-937) [µM] | IC50 (MCF7 [5]) [µM] | IC50 (HeLa) [µM] | Ratio IC50 (A549 [6]) | Ratio IC50 (MCF7 [7])
Cc1ccc(C)c(NC(=O)NCCO[C@H]2O[C@@H]3O[C@@]4(C)CC[C@H]5[C@H](C)CC[C@@H]([C@H]2C)[C@@]35OO4)c1 | 1.7 | > 100 | > 100 | 33.7 | 23.2 | 47.5 | < 1 | 23 | 2.51 | 42.2 | 31 | 1.2 | –
Cc1c(Cl)cccc1NC(=O)NCCO[C@H]1O[C@@H]2O[C@@]3(C)CC[C@H]4[C@H](C)CC[C@@H]([C@H]1C)[C@@]24OO3 | 1.7 | > 100 | > 100 | 26.2 | 40.6 | 22.7 | < 1 | 9.45 | 2.59 | 36.8 | 25.7 | 1.2 | –
C[C@H]1[C@@H](OCCNC(=O)Nc2ccc(F)cc2)O[C@@H]2O[C@@]3(C)CC[C@H]4[C@H](C)CC[C@@H]1[C@@]24OO3 | 1.7 | 26.8 | 33.7 | 43.7 | 26.2 | 43.7 | 3.64 | 38.4 | 25.2 | 46.8 | 35.2 | 1.2 | –
C[C@H]1[C@@H](OCCNC(=O)Nc2ccc(Cl)cc2)O[C@@H]2O[C@@]3(C)CC[C@H]4[C@H](C)CC[C@@H]1[C@@]24OO3 | 1.7 | 43.9 | 41 | 42 | 36.3 | 39.5 | < 1 | 32.5 | 9.99 | 32.8 | 20.6 | 1.2 | –
C[C@H]1[C@H](OCCNC(=O)Nc2ccc(C(F)(F)F)cc2)O[C@@H]2O[C@@]3(C)CC[C@H]4[C@H](C)CC[C@@H]1[C@@]24OO3 | 1.7 | > 100 | > 100 | 37.1 | 11.7 | 46.4 | < 1 | 26.1 | < 1 | > 100 | 31.7 | 1.2 | –
C[C@H]1[C@@H](OCCNC(=O)Nc2ccc([N+](=O)[O-])cc2)O[C@@H]2O[C@@]3(C)CC[C@H]4[C@H](C)CC[C@@H]1[C@@]24OO3 | 1.7 | 29.8 | 35.9 | 53 | 39.6 | 44.4 | 1.2 | 32.1 | 7.75 | 42.2 | 23 | 1.2 | –
C[C@H]1[C@@H](OCCNC(=O)Nc2ccc(Br)cc2)O[C@@H]2O[C@@]3(C)CC[C@H]4[C@H](C)CC[C@@H]1[C@@]24OO3 | 1.7 | > 100 | > 100 | 34.2 | 23.2 | 26.7 | < 1 | 27.6 | 5.2 | 25.6 | 18.2 | 1.2 | –
C[C@H]1[C@H](OCCNC(=O)Nc2ccc(Br)cc2)O[C@@H]2O[C@@]3(C)CC[C@H]4[C@H](C)CC[C@@H]1[C@@]24OO3 | 1.7 | 35.2 | 23.9 | 39.4 | 24.3 | 35 | < 1 | 34.6 | < 1 | 25.9 | 23.9 | 1.2 | –
C[C@H]1[C@H](OCCNC(=O)Nc2ccc(Cl)cc2)O[C@@H]2O[C@@]3(C)CC[C@H]4[C@H](C)CC[C@@H]1[C@@]24OO3 | 1.7 | 40.3 | 9.25 | 35.5 | 16.6 | 37.8 | < 1 | 37.9 | 2.6 | 25.9 | 19.7 | 1.2 | –
C[C@H]1[C@H](OCCNC(=O)Nc2ccc([N+](=O)[O-])cc2)O[C@@H]2O[C@@]3(C)CC[C@H]4[C@H](C)CC[C@@H]1[C@@]24OO3 | 1.7 | > 100 | > 100 | 49.6 | 34.3 | 41 | < 1 | > 100 | 9.26 | 94.7 | 64.2 | 1.2 | –
COc1ccc(NC(=O)NCCO[C@H]2O[C@@H]3O[C@@]4(C)CC[C@H]5[C@H](C)CC[C@@H]([C@H]2C)[C@@]35OO4)cc1 | 1.7 | > 100 | > 100 | 63.2 | 46.2 | 50.7 | 2.53 | 55.8 | 23.7 | > 100 | 61.5 | 1.2 | –
C[C@H]1[C@@H](OCCNC(=O)Nc2ccc(C(F)(F)F)cc2)O[C@@H]2O[C@@]3(C)CC[C@H]4[C@H](C)CC[C@@H]1[C@@]24OO3 | 1.7 | > 100 | > 100 | 29.5 | 11.2 | 31.3 | < 1 | 6.97 | 1.1 | 11.6 | 16.6 | 1.2 | 4
Cc1ccccc1NC(=O)NCCO[C@H]1O[C@@H]2O[C@@]3(C)CC[C@H]4[C@H](C)CC[C@@H]([C@H]1C)[C@@]24OO3 | 1.7 | > 100 | > 100 | 41.7 | 53.2 | 53.8 | 2.11 | 29.4 | 16.2 | 88.9 | 64.7 | 1.2 | –
C[C@H]1[C@@H](OCCNC(=O)Nc2ccccc2)O[C@@H]2O[C@@]3(C)CC[C@H]4[C@H](C)CC[C@@H]1[C@@]24OO3 | 1.7 | > 100 | > 100 | 63.3 | 34 | 53.8 | 3 | 25 | 6.06 | 43.7 | 25.1 | 1.2 | –
C[C@H]1[C@@H](O)O[C@@H]2O[C@@]3(C)CC[C@H]4[C@H](C)CC[C@@H]1[C@@]24OO3 [ARTENIMOL] | – | 49.1 | 5.48 | 76.2 | 30.1 | 95.4 | < 1 | 9.81 | < 1 | 50.2 | 8.85 | – | –
